Source: PubChem BioAssay (NCI)
“And” between values parts separate entries of the source, which are not always exact repeats. Identical values can stand only once.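 Briefly, cells in 96-well plates were exposed to five compound concentrations for 48 h, and endpoints were estimated by linear interpolation. GI50 is the concentration that inhibits growth by half. Definition used: TGI = concentration required for complete inhibition of growth.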

What was measured:
Experiment in all cases: inhibition of tumour cell growth, NCI panel, 48 h
HOP-62 NSCLC = system: HOP-62 NSCLC
RPMI-8226 leukemia = system: RPMI-8226 leukemia
MOLT-4 leukemia = system: MOLT-4 leukemia
HT29 colon = system: HT29 colon
CAKI-1 renal = system: CAKI-1 renal
SR leukemia = system: SR leukemia
OVCAR-4 ovarian = system: OVCAR-4 ovarian
LOX IMVI melanoma = system: LOX IMVI melanoma
UACC-257 melanoma = system: UACC-257 melanoma
HL-60(TB) leukemia = system: HL-60(TB) leukemia

| Compound | GI50 (HOP-62 NSCLC) [µM] | TGI (HOP-62 NSCLC) [µM] | GI50 (RPMI-8226 leukemia) [µM] | TGI (RPMI-8226 leukemia) [µM] | GI50 (MOLT-4 leukemia) | TGI (MOLT-4 leukemia) [µM] | GI50 (HT29 colon) [µM] | TGI (HT29 colon) | GI50 (CAKI-1 renal) | TGI (CAKI-1 renal) | GI50 (SR leukemia) [µM] | TGI (SR leukemia) [µM] | GI50 (OVCAR-4 ovarian) [µM] | TGI (OVCAR-4 ovarian) | GI50 (LOX IMVI melanoma) [µM] | TGI (LOX IMVI melanoma) | GI50 (UACC-257 melanoma) | TGI (UACC-257 melanoma) | GI50 (HL-60(TB) leukemia) [µM] | TGI (HL-60(TB) leukemia) [µM] |
| --- | --- | --- | --- | --- | --- | --- | --- | --- | --- | --- | --- | --- | --- | --- | --- | --- | --- | --- | --- | --- |
| CN(C)C(=O)c1cc2cnc(Nc3ccc(-c4csc5c(=O)cc(N6CCNCC6)oc45)cc3)nc2n1C1CCCC1 | 1.03 | 10.6 | 0.453 | 2.74 | 0.368 µM | 2.11 | 0.438 | 2.99 µM | 0.819 µM | 12.9 µM | 0.231 | 2.44 | 1.34 | 5.73 µM | 0.85 | 2.22 µM | 5.28 µM | 22.9 µM | 0.271 | 1.72 |
| Cc1cc2c3ccccc3ccc2[n+]2ccccc12 | 2.58 | 11.7 | 8.7 | 80.3 | 4.64 µM | 28.2 | 9.19 | 41.1 µM | > 28 µM | > 100 µM | 2.25 | 12.9 | 2.88 | 14.8 µM | 21.5 | 91.6 µM | 6.17 µM | 27.5 µM | 14.3 | 46.3 |
| CCC[CH2][Ge]([CH2]CCC)([CH2]CCC)[O]C(=O)C(OC)c1ccccc1 (stereo not given) | 20.6 | > 70.6 | 0.255 | 14.6 | 3.74 µM | > 60.6 | 25.4 | > 100 µM | 70.1 µM | > 100 µM |  | > 55.4 | 15.3 | > 100 µM | 14.3 | 35.1 µM | 16.7 µM | > 100 µM | 2.96 | > 26.1 |
| Cc1ccc(C2(O)CC(c3ccc([N+](=O)[O-])o3)=NN2C(=O)COc2ccccc2Cl)cc1 (stereo not given) |  | 83.5 |  | > 31.9 |  | 96.1 |  | > 42 µM |  | > 100 µM |  | 23.1 |  | > 100 µM |  | 18.9 µM |  | 53.6 µM |  | 12.9 |
| Nc1ncnc2c(C3OC(CO)C(O)C3O)[nH]nc12 (stereo not given) | 0.123 |  |  | 3.96 | 3.59 µM and 2.01 µM | 38.3 |  | 10.5 µM and 4.62 µM | 0.0365 µM and 0.061 µM | 0.281 µM and 0.214 µM | 0.0347 |  | 0.116 | 3.51 µM and 2.3 µM | 0.147 | 2.22 µM and 0.4 µM | 1.45 µM and 2.1 µM | 10.2 µM and 26.6 µM | 0.0142 | 0.111 |
| CCc1ccc(Nc2cc(=O)[nH]c(=S)n2C)cc1 |  | > 100 |  | > 100 |  | > 100 |  | > 100 µM |  | > 100 µM |  | > 100 |  | > 100 µM |  | > 100 µM |  | > 100 µM |  | > 100 |
| C/C1=C\C/C=C(\C)[C@H]2CC(CC/C(C)=C/CC1)[C@@](C)(CO)O2 | 47.6 | > 100 | 40.6 | > 100 | 23.5 µM | > 100 | > 100 | > 100 µM | 44.9 µM | > 100 µM | 14.6 | 43.8 | > 100 | > 100 µM | 23.3 | 54 µM | > 100 µM | > 100 µM | 16.8 | 51.1 |
| O=C(OCC1OC(OC(=O)c2cc(O)c(O)c(OC(=O)c3cc(O)c(O)c(O)c3)c2)C(OC(=O)c2cc(O)c(O)c(OC(=O)c3cc(O)c(O)c(O)c3)c2)C(OC(=O)c2cc(O)c(O)c(OC(=O)c3cc(O)c(O)c(O)c3)c2)C1OC(=O)c1cc(O)c(O)c(OC(=O)c2cc(O)c(O)c(O)c2)c1)c1cc(O)c(O)c(OC(=O)c2cc(O)c(O)c(O)c2)c1 (stereo not given) | > 50 | > 50 | 20.8 | > 50 | 41.3 µM | > 50 | 26.4 | > 50 µM | 9.63 µM | 47.5 µM | 21 | > 50 | 35.2 | > 50 µM | 10 | 25.4 µM | 20.9 µM | > 50 µM | 29.4 | > 50 |
| Cc1ccccc1-c1c(N)nc(N)nc1C(=O)Nc1nccs1 |  | > 100 |  | > 100 |  | > 100 |  | > 100 µM |  | > 100 µM |  | > 100 |  | > 100 µM |  | > 100 µM |  | > 100 µM |  | > 100 |
| Cc1ccccc1NC(=O)C1C(=O)N(c2ccccc2C)C(=O)/C1=N\N (stereo not given) |  | > 100 |  | > 100 |  | > 100 |  | > 100 µM |  | > 100 µM |  | > 100 |  | > 100 µM |  | > 100 µM |  | > 100 µM |  | > 100 |
| CC(=O)OC1CCC2(C)C(CCC3C4CC=C(C(C)=O)C4(C)OC(=O)CC32)C1 (stereo not given) | 4.06 | 14.7 | 1.79 | 4.86 | 2.29 µM | 6.41 | 1.6 | 3.09 µM | 2.54 µM | 9 µM | 0.382 | 18.2 | 1.7 | 3.31 µM | 1.61 | 3.17 µM | 1.42 µM | 2.98 µM | 2.05 | 5.05 |
